Reference: PubChem BioAssay (NCI)
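Where inhibition never reached the appropriate level, the endpoint shown equals the highest concentration tested. Otherwise, values were interpolated linearly from a five-concentration, 48-hour dose response in 96-well plates. GI50: concentration for 50% inhibition of growth. TGI: total growth inhibition.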

Tested on: HOP-92 NSCLC
Assay: growth of human tumour cells (NCI), 48 h

| Compound | GI50 | TGI |
| --- | --- | --- |
| CCOC(=O)CCCn1c(SC)nc2[nH]cc(-c3ccccc3)c2c1=O | 7.62 µM | 41.1 µM |
| CCN(CC)CCOc1ccc(-c2nc3cc(Cl)ccc3s2)cc1 | 1.22 µM | 4.2 µM |
| CNC(=O)N(C)N=NCCCl | – | > 100 µM |
| CCOc1ccccc1C=C1c2ccccc2C(=O)c2ccccc21 | – | 72.9 µM |
| CCN1CCN(C(c2ccc(C(F)(F)F)cc2)c2ccc3cccnc3c2O)CC1 (centres undefined) | 3.62 µM | 25.3 µM |
| [N-]=[N+]=NC12CC3C4CC5CC3C(C1)C(C5)C4C2 | – | > 100 µM |
| CN(C)c1nc2ccccc2[nH]1 | – | > 100 µM |
| NNC(=S)N/N=C(\CC1OC(=O)c2ccccc21)c1ccccc1O (centres undefined) | – | > 100 µM |
| COC(=O)C1=C(O)c2cc(OC)c(OC)cc2C(c2ccc(OC)c(OC)c2)C1 (centres undefined) | – | > 100 µM |
| COC1(OC)CC2C(=O)N(Cc3ccccc3)C1C(S(=O)(=O)c1ccccc1)C2S(=O)(=O)c1ccccc1 (centres undefined) | – | 34 µM |
| Cc1cc(CC(O)c2ccc(Cl)c(Cl)c2)nc(=O)[nH]1 (centres undefined) | – | 49.5 µM |
| COC(=O)C(=Cc1cc(OC)ccc1OC)C(=O)OC | – | 60 µM |
| CC(C)c1ccccc1NC(=O)CCc1n[nH]c(=S)o1 | – | > 100 µM |
| CCCCC(C(=O)C(=O)NC1C2CC3CC(C2)CC1C3)C(=O)C(C)C (centres undefined) | – | > 100 µM |
| COC(=O)c1cc2c(s1)C(=O)c1ccccc1-2 | – | > 100 µM |
| Cc1ccc(S(=O)(=O)N(CC(=O)O)c2ccccc2)cc1 | – | > 100 µM |
| COc1ccc(C(=O)C(c2ccc(OC)cc2)C2(O)C(=O)Nc3ccc([N+](=O)[O-])cc32)cc1 (centres undefined) | – | > 100 µM |
| O=C(/C=C/c1ccccc1O)c1ccccc1O | – | > 100 µM |
| N#CC(N)(C(=O)CCC(=O)Nc1cccc(Cl)c1)c1ccc(Cl)cc1 (centres undefined) | – | > 100 µM |
| S=C(Nc1ccccc1)N(/N=C/C=C/c1ccccc1)c1nnc(-c2ccccc2)c(-c2ccccc2)n1 | – | 83.8 µM |
| CN1CCN(CCOc2ccc(-c3cnc4c(-c5ccccc5F)cnn4c3)cc2)CC1 | 1.31 µM | 3.15 µM |
| CN(C)N=Nc1ccc(NC=O)cc1 | – | > 100 µM |

Tested on: HS 578T breast
Assay: growth of human tumour cells (NCI), 48 h

| Compound | GI50 | TGI |
| --- | --- | --- |
| COc1cc2nc(-c3ccc(Cl)cc3)cc(OCCCN3CCCCC3)c2cc1OC | 2.11 µM | 7.18 µM |
| O=C(O)C1C2C=CC(O2)C1C(=O)NCc1ccccn1 (centres undefined) | – | > 100 µM |
| O=C(OC(CNc1cc(=O)n(Cc2ccccc2)c(=O)n1Cc1ccccc1)CN1CCCC1)c1ccccc1 (centres undefined) | > 100 µM | > 100 µM |
| CCOC(=O)CCCn1c(SC)nc2[nH]cc(-c3ccccc3)c2c1=O | 23.8 µM | 77.4 µM |
| CCN(CC)CCOc1ccc(-c2nc3cc(Cl)ccc3s2)cc1 | 1.62 µM | 3.72 µM |
| CNC(=O)N(C)N=NCCCl | – | > 100 µM |
| NC(=Nc1c([N+](=O)[O-])cnc2ccccc12)N1CCOCC1 | – | > 100 µM |
| CN1CCN(CCOc2ccc(-c3cnc4c(-c5ccccc5F)cnn4c3)cc2)CC1 | 2 µM | 5.22 µM |

Tested on: KM12 colon
Assay: growth of human tumour cells (NCI), 48 h

| Compound | TGI | GI50 |
| --- | --- | --- |
| CC(C)N(C(=O)C12C3C4C5(C#N)C3C1(C#N)C5C42I)C(C)C (centres undefined) | > 100 µM | – |
| COc1cc2nc(-c3ccc(Cl)cc3)cc(OCCCN3CCCCC3)c2cc1OC | > 100 µM | 3.07 µM |
| COc1ccc2c3c([nH]c2c1[N+](=O)[O-])C(C)=NCC3 | > 100 µM | – |
| CC(C)(C)CC(C)(C)c1cc2c(O)c(c1)Cc1cc(C(C)(C)CC(C)(C)C)cc(c1O)Cc1cc(C(C)(C)CC(C)(C)C)cc(c1O)Cc1cc(C(C)(C)CC(C)(C)C)cc(c1O)C2 | > 100 µM | – |
| Cc1cc([N+](=O)[O-])ccc1Nc1cccc(Cl)c1C | 31 µM | – |
| O=C(O)C1C2C=CC(O2)C1C(=O)NCc1ccccn1 (centres undefined) | > 100 µM | – |
| CC1=C(C(=O)Nc2ccccc2)C(c2ccccc2)C(C(=O)Nc2ccccc2)=C(C)N1 | > 100 µM | – |
| O=C(OC(CNc1cc(=O)n(Cc2ccccc2)c(=O)n1Cc1ccccc1)CN1CCCC1)c1ccccc1 (centres undefined) | > 100 µM | > 100 µM |
| Cc1nn(-c2ccccc2)c2nc(N3CCOCC3)nnc12 | > 100 µM | – |
| CCOC(=O)CCCn1c(SC)nc2[nH]cc(-c3ccccc3)c2c1=O | 38.2 µM | 16.8 µM |
| CNC(=O)N(C)N=NCCCl | > 100 µM | – |
| CCOc1ccccc1C=C1c2ccccc2C(=O)c2ccccc21 | > 100 µM | – |
| O=C(CCn1[nH]c(=O)c(Cl)c(Cl)c1=O)NO | > 100 µM | – |
| CCN1CCN(C(c2ccc(C(F)(F)F)cc2)c2ccc3cccnc3c2O)CC1 (centres undefined) | 16.8 µM | 0.89 µM |
| [N-]=[N+]=NC12CC3C4CC5CC3C(C1)C(C5)C4C2 | > 100 µM | – |
| CN(C)c1nc2ccccc2[nH]1 | > 100 µM | – |
| NNC(=S)N/N=C(\CC1OC(=O)c2ccccc21)c1ccccc1O (centres undefined) | > 100 µM | – |

| Compound | TGI | GI50 |
| --- | --- | --- |
| COC(=O)C1=C(O)c2cc(OC)c(OC)cc2C(c2ccc(OC)c(OC)c2)C1 (centres undefined) | > 100 µM | – |
| COC1(OC)CC2C(=O)N(Cc3ccccc3)C1C(S(=O)(=O)c1ccccc1)C2S(=O)(=O)c1ccccc1 (centres undefined) | 34.1 µM | – |
| NC(=Nc1c([N+](=O)[O-])cnc2ccccc12)N1CCOCC1 | > 100 µM | – |
| Cc1cc(CC(O)c2ccc(Cl)c(Cl)c2)nc(=O)[nH]1 (centres undefined) | > 100 µM | – |
| COC(=O)C(=Cc1cc(OC)ccc1OC)C(=O)OC | 42.8 µM | – |
| CC1=NNC(=O)C2CCC(=O)N12 (centres undefined) | > 100 µM | – |
| CC(C)c1ccccc1NC(=O)CCc1n[nH]c(=S)o1 | > 100 µM | – |
| CCCCC(C(=O)C(=O)NC1C2CC3CC(C2)CC1C3)C(=O)C(C)C (centres undefined) | > 100 µM | – |
| COC(=O)c1cc2c(s1)C(=O)c1ccccc1-2 | > 100 µM | – |
| Cn1c2c(c3ccccc31)C1CCCCCCC1C1C(=O)OC(=O)C21 (centres undefined) | > 100 µM | – |
| Cc1ccc(S(=O)(=O)N(CC(=O)O)c2ccccc2)cc1 | > 100 µM | – |
| COc1ccc(C(=O)C(c2ccc(OC)cc2)C2(O)C(=O)Nc3ccc([N+](=O)[O-])cc32)cc1 (centres undefined) | > 100 µM | – |
| O=C(/C=C/c1ccccc1O)c1ccccc1O | > 100 µM | – |
| N#CC(N)(C(=O)CCC(=O)Nc1cccc(Cl)c1)c1ccc(Cl)cc1 (centres undefined) | > 100 µM | – |
| S=C(Nc1ccccc1)N(/N=C/C=C/c1ccccc1)c1nnc(-c2ccccc2)c(-c2ccccc2)n1 | > 100 µM | – |
| CN1CCN(CCOc2ccc(-c3cnc4c(-c5ccccc5F)cnn4c3)cc2)CC1 | 2.12 µM | 0.647 µM |
| CN(C)N=Nc1ccc(NC=O)cc1 | > 100 µM | – |

Tested on: TK-10 renal
Assay: growth of human tumour cells (NCI), 48 h

| Compound | TGI |
| --- | --- |
| CC(C)N(C(=O)C12C3C4C5(C#N)C3C1(C#N)C5C42I)C(C)C (centres undefined) | > 100 µM |
